Here are results for 10 compounds from PMC8824275, “Gastrointestinal Stability and Cytotoxicity of Bacteriocins From Gram-Positive and Gram-Negative Bacteria: A Comparative in vitro Study” (Frontiers in Microbiology, 2022).

Converted amounts (≈) assume the structure as drawn. Read-outs that look alike come from different tables or passages of the source. Bridge positions count the residues as written; N and C are the ends. Square brackets hold non-standard residues; d marks the D form. Ends that are not written are not given here. Peptide text beside a SMILES is read from it. Abu = CC[C@H](N)C(=O)O; Dhb = C/C=C(\N)C(=O)O; Dha = C=C(N)C(=O)O

One data set concerns Vero cells. The note with it: cited from earlier work. The source says:
(§1) To the best of our knowledge, this is the first study that evaluates the cytotoxicity of several bacteriocins with different structures, mechanisms of actions and spectra of inhibitory activity.

The next data set has as its system S. aureus ATCC 6538. In kind it is cell-based, Staphylococcus aureus. The note with it: for Total activity: broth microdilution. The source says:
(§2) Microcin J25 was produced by Escherichia coli MC4100 carrying the plasmid PTUC 202 ([Solbiati et al., 1999]). For the antibacterial activity of pure compounds and digestion mixture, Listeria ivanovii HPB28 (Canada Health Protection Branch) was used as indicator strain for nisin and pediocin PA-1, while Staphylococcus aureus ATCC 6538 (ATCC) and Salmonella enterica subsp. enterica serovar Newport ATCC 6962 (later referred to as S. Newport, ATCC) were used as indicator strains for bactofencin A (M14L, M18L) and microcin J25, respectively. L. ivanovii HPB28 and S. aureus were cultured in Tryptic Soy (Difco Laboratories, Spark, MD, United States) supplemented with 0.6% yeast extract (TSBYE), at 30 and 37°C, respectively. S. Newport was cultured at 37°C overnight in Luria-Bertani (LB) (Difco Laboratories, Spark, MD, United States). All strains were maintained at –80°C as stock cultures in their corresponding culture media supplemented with 20% glycerol, and propagated twice at 24 h intervals before use.
(§3) Quantitative determination of inhibitory activity of bacteriocins was carried out using the broth microdilution method as described by [Ben Said et al. (2020)]. Two-fold serial dilutions of bacteriocins (125 μL) were prepared in an appropriate medium in a clear 96-well flat-bottom microtiter plate. Indicator strains were diluted to 10^5 CFU/mL, from which 50 μL were added to each well. The microtiter plates were incubated for 24 h under appropriate conditions, and optical densities were recorded at 595 nm (Infinite M200, Tecan, Switzerland). Control wells contained untreated culture and appropriate medium (blanks). The number of inhibition wells was noted and inhibition activities were calculated in μg/mL.

The test system of another data set is human red blood cells. The following applies: 750 μM (2.5 mg/mL), ref Begde et al., 2011; cited from earlier work. The procedure: (§4) Hemolytic activity is used for initial toxicity assessment and estimation of therapeutic index. Nisin remains to be the most studied bacteriocin, while there are very few data available for the other bacteriocins. […] Hemolytic activity of nisin A (Nisaplin®) at 3.35 μg/mL concentration was reported to be 6% in human red blood cells. In another study by [Maher and McClean (2006)], hemolytic activity exerted by 230 μM (771 μg/mL) nisin A (Nutrition 21) was shown ...

The conditions of data set [1]: cited from earlier work. The source says: There are limited number of studies regarding the stability of bacteriocins in the GI tract. It has been shown that bacteriocins can be degraded by proteolytic enzymes such as pepsin, trypsin and chymotrypsin in the stomach or intestine ([Fernandez et al., 2013]). […] However, in the current study, pediocin PA-1(M31L) and bactof ...

For another data set, the system named is sheep erythrocytes. The note with it: sheep blood cells, 33.75 μM (113 μg/mL); ref Paiva et al., 2012; cited from earlier work. The procedure:
as §4

The subject of the next data set is HepG2 cells. The note with it: ref Paiva et al., 2012; cited from earlier work.
From the text: as §1

The test system of the next data set is MCF-7 cells. The note with it: ref Paiva et al., 2012; cited from earlier work.
From the text: as §1

The test system of a further data set is S. Newport ATCC 6962. The format is cell-based, Salmonella enterica subsp. enterica serovar Newport. The following applies: for Total activity: broth microdilution.
From the text: as §2, §3

The test system of the next data set is SV40 cells. The note with it: 700 AU/mL (approximately 10–20 mg/mL), trypan blue, ref Murinda et al., 2003; cited from earlier work.
From the text: as §1

For a further data set, the system named is L. ivanovii HPB 28. In kind it is cell-based, Listeria ivanovii. The following applies: broth microdilution.
From the text: as §2, §3

In the next data set the test system is rat erythrocytes. The data set can be described thus: Hemolytic activity. In kind it is cell-based. The following applies: 0.4 to 400 μg/mL, 45 min, 37°C. The protocol:
The experiment was performed after prior approval from the local ethics committee by TransBIOTech laboratory. Hemolytic potential of bacteriocins was evaluated according to [FDA (2005)]. Rat blood was collected into a heparinized tube and added in a 1:1 volume (100 μL) to serially diluted compounds (in 100 μL PBS), in a conical 96-well plate. 10% Triton X-100 and PBS were used as a positive and negative controls, respectively. The plates were sealed and incubated for 45 min at 37°C prior to centrifugation at 2,000 g for 10 min to pellet red blood cells. The supernatant was then transferred into clear 96-well plates and the absorbance was read at 540 nm (hemoglobin). The percentage of hemolysis was calculated as follow, with RBC standing for red blood cells:
%Hemolysis=AbsorbanceofRBCtreatedwithbacteriocins-AbsorbanceofRBCtreatedwithPBS/AbsorbanceofRBCtreatedwithTritonX100-AbsorbanceofRBCtreatedwithPBS

A further data set concerns Caco-2. The following applies: MTT assay, ref Maher and McClean, 2006; cited from earlier work.
From the text: as §1

The subject of the next data set is HT29 (epithelial cells). The following applies: MTT assay, ref Maher and McClean, 2006; cited from earlier work.
From the text: as §1

For data set [2], the system named is human cells relevant to oral cavity. The following applies: concentration up to 200 μg/mL; ref Shin et al. (2015); cited from earlier work.
Where [3] appears, read: after oral conditions (SSF, 2 min, 37°C).
The mark [4] stands for this setting: pure compound without GI digestion, 24 h, OD 595 nm.
Setting [5] is: TIM-1 dynamic model, ref Kheadr et al., 2010.

As to “nisin A (I[Dhb]AI[Dha]LC[Abu]PGCK[Abu]GALMGCNMK[Abu]A[Abu]CHCSIHV[Dha]K; thioether (positions not given here); not fully specified (residues 7, 11, 19, 26, 28, bridges); UniProt P13068 24-57, looked up) [nisin A (Nisaplin®), commercial nisin A product Nisaplin (Danisco)]”, in the data set with Vero cells (LDH cytotoxicity assay, ref Vaucher et al. (2010)), the half-maximal effective concentration (EC50) is 0.62 µg/mL.
`CC(C)C[C@@H]1NC(=O)CNC(=O)[C@H]([C@@H](C)O)NC(=O)[C@@H]2CCCN2C(=O)[C@H](CC(C)C)NC(=O)CNC(=O)[C@H](CC(N)=O)NC(=O)[C@H](CC(N)=O)NC(=O)[C@H](Cc2ccc(O)cc2)NC(=O)[C@H](C(C)C)NC(=O)[C@H](CCCNC(=N)N)NC(=O)[C@@H](NC(=O)[C@H](CCCNC(=N)N)NC(=O)[C@H](Cc2c[nH]cn2)NC(=O)[C@H](CCCCN)NC(=O)[C@H](CCCCN)NC(=O)[C@H](CCCNC(=N)N)NC(=O)[C@@H](N)CCCCN)CSSC[C@@H](C(N)=O)NC(=O)[C@H](Cc2c[nH]c3ccccc23)NC(=O)[C@H](CCCNC(=N)N)NC(=O)[C@H](Cc2ccc(O)cc2)NC1=O` [bactofencin A(M14L, M18L)] (H-KRKKHRCRVYNNGLPTGLYRWC-NH2; disulfide 7-22 (inferred); N-terminus and C-terminus assumed): in the data set with S. aureus ATCC 6538 (ATCC 6538, 24 h), the MIC was determined as 5 µg/mL (≈ 1.82 µM). Moreover, the Total activity in the data set on S. aureus ATCC 6538 (setting [3]) and in the data set on S. aureus ATCC 6538 (setting [4]) was 10.4 AU/mL each time.
nisin: in the data set on human red blood cells, the Relative hemolysis is 10%.
On to `CC[C@H](C)[C@H](NC(=O)CNC(=O)[C@@H](NC(=O)[C@H](Cc1ccccc1)NC(=O)[C@H](Cc1ccc(O)cc1)NC(=O)[C@@H]1CCC(=O)NCC(=O)NCC(=O)N[C@@H](C)C(=O)NCC(=O)N[C@@H](Cc2cnc[nH]2)C(=O)N[C@@H](C(C)C)C(=O)N2CCC[C@H]2C(=O)N1)C(C)C)C(=O)NCC(=O)N[C@H](C(=O)N1CCC[C@H]1C(=O)N[C@H](C(=O)N[C@@H](CO)C(=O)N[C@@H](Cc1ccccc1)C(=O)N[C@@H](Cc1ccc(O)cc1)C(=O)NCC(=O)O)[C@@H](C)CC)[C@@H](C)O` [microcin J25] (GGAGHVPEYFVGIGTPISFYG-OH; lactam N-8), for which, in data set [1], the “Degradation upon exposure to pancreatin (small intestine)” value is “only partially degraded” and the “Resistance to the proteolytic enzymes in the stomach” value was “highly resistant”.
As to nisin C [nisin C (Chrisin®)], in the data set with sheep erythrocytes, the Hemolysis was 6.6%. For the same compound, the “Concentration reducing viability to 50%” value was 352 µg/mL in the data set with HepG2 cells; 45.21 µg/mL with Vero cells (ref Paiva et al., 2012); 352 µg/mL in the data set with MCF-7 cells.
Compound `CC[C@H](C)[C@H](NC(=O)CNC(=O)[C@@H](NC(=O)[C@H](Cc1ccccc1)NC(=O)[C@H](Cc1ccc(O)cc1)NC(=O)[C@@H]1CCC(=O)NCC(=O)NCC(=O)N[C@@H](C)C(=O)NCC(=O)N[C@@H](Cc2c[nH]cn2)C(=O)N[C@@H](C(C)C)C(=O)N2CCC[C@H]2C(=O)N1)C(C)C)C(=O)NCC(=O)N[C@H](C(=O)N1CCC[C@H]1C(=O)N[C@H](C(=O)N[C@@H](CO)C(=O)N[C@@H](Cc1ccccc1)C(=O)N[C@@H](Cc1ccc(O)cc1)C(=O)NCC(=O)O)[C@@H](C)CC)[C@@H](C)O` [microcin J25] (GGAGHVPEYFVGIGTPISFYG-OH; lactam N-8 (inferred); C-terminus assumed) showed an MIC in the data set on S. Newport ATCC 6962 (ATCC 6962, 24 h) of 0.0356 µg/mL (≈ 0.0169 µM). Further, the Total activity is given as 0.0712 AU/mL in the data set on S. Newport ATCC 6962 (after gastric conditions (SGF, pepsin 2000 U/mL, lipase 60 U/mL, pH 3, 90 min, 37°C)); 0.0712 AU/mL in the data set with S. Newport ATCC 6962 (setting [3]); 0.356 AU/mL with S. Newport ATCC 6962 (after small intestinal conditions (SIF, bile salt 10 mmol/L, pancreatin 100 U/mL, pH 7, 2 h, 37°C)); 0.0712 AU/mL with S. Newport ATCC 6962 (setting [4]).
Consider “pediocin PA-1 (KYYGNGVTCGKHSCSVDWGKATTCIINNGAMAWATGGHQGNHKC; disulfide 9-14, 24-44; UniProt P29430 19-62, looked up) [wild-type bacteriocin naturally produced by Pediococcus acidilactici, literature data]”, for which the “Cell viability reduced to” value in the data set with SV40 cells is listed as 36%. The same compound showed a Total activity in the data set on L. ivanovii HPB 28 (setting [3]) of 0.18 AU/mL. In the data set with L. ivanovii HPB 28 (setting [4]), this compound returned a Total activity of 0.18 AU/mL. Moreover, in data set [1] (setting [5]), the “Stability in the small intestine” value was “completely degraded” and the “Stability in the stomach” value is recorded as “stable”.
For “KYYGNGVTCGKHSCSVDWGKATTCIINNGALAWATGGHQGNHKC-OH (disulfide 9-14, 24-44) [pediocin PA-1(M31L)]”, the “Concentration above which dose-dependent increase in percentage of hemolysis was shown” value in the data set on rat erythrocytes was “higher than 50 μg/mL”.
Take “nisin A (I[Dhb]AI[Dha]LC[Abu]PGCK[Abu]GALMGCNMK[Abu]A[Abu]CHCSIHV[Dha]K; thioether (positions not given here); not fully specified (residues 7, 11, 19, 26, 28, bridges); UniProt P13068 24-57, looked up) [nisin A (Nutrition 21), commercial nisin A (Nutrition 21)]”: the half-maximal inhibitory concentration (IC50) was 385.7 µg/mL with Caco-2 and 301.5 µg/mL with HT29 (epithelial cells).
“nisin Z (I[Dhb]AI[Dha]LC[Abu]PGCK[Abu]GALMGCNMK[Abu]A[Abu]CNCSIHV[Dha]K; thioether (positions not given here); not fully specified (residues 7, 11, 19, 26, 28, bridges); UniProt P29559 24-57, looked up) [nisin Z (Handary, Brussels, Belgium), commercial nisin Z from Handary]”: the Toxic effect result in data set [2] is recorded as “did not exert any toxic effect”.
